Laboratory results reported in patent US9771327B2, “Compounds and methods for the treatment of cystic fibrosis” (FLATLEY DISCOVERY LAB, LLC, priority 2013, dated 2017).

Molecular target: T1, human ΔF508-CFTR (Homo sapiens, UniProt P13569, DEL508-508)
T1 construct: expressed in transfected cells
Assay: CFTR-YFP high throughput assay, CFTR corrector protocol (YFP iodide flux quench)
Format: cell-based
Conditions: FRT cells expressing human ΔF508-CFTR and YFP-H148Q/I152L, 24-26 h incubation with compound; for Emax: normalized to the positive control, read-out: EMAX (% Efficacy, EMAX normalized to the positive control); for EC50: stimulated with 20 μM Forskolin & 30 μM P3
Procedure: Assays for Detecting and Measuring the Effect of Compounds on dF508-CFTR Channels CFRT-YFP High Throughput Assay-CFTR Corrector Protocol:
This protocol is designed to selectively screen small molecule compounds for F508del CFTR corrector activities in the HTS YFP flux assay. In this protocol, the cells are incubated with testing compounds for 24 hours, washed with PBS, stimulated with forskolin and a standard potentiator, and read on a 384-well HTS plate reader, such as the Hamamatsu FDDD-6000.
YFP fluorescence intensity is acquired at high speed before and after iodide buffer is injected to the assay cells. Iodide enters the cells via active CFTR channels in the plasma membrane, and quenches the YFP fluorescence. The rate of fluorescence quenching is proportionally related to the total CFTR activities in the cell membrane. dF508-CFTR corrector accelerates YFP quenching by increasing the number of CFTR molecules in the testing cell plasma membrane.
This method was initially developed for bench top plate readers (Galietta et al., 2001), and was adapted to the HTS format (Sui et al. Assay Drug Dev. Technol. 2010).
Fisher Rat Thyroid (FRT) cells stably expressing both human ΔF508-CFTR and a halide-sensitive yellow fluorescent protein (YFP-H148Q/I152L 25,22) (Galietta et al., Am. J. Physiol Cell Physiol, 281(5), C1734, 2001) were cultured on plastic surface in Coon's modified Ham's F12 medium supplemented with FBS 10%, L-glutamine 2 mM, penicillin 100 U/ml, and streptomycin 100 μg/ml. G418 (0.75-1.0 mg/ml) and zeocin (3.2 ug/ml) were used for selection of FRT cells expressing ΔF508-CFTR and YFP. For primary screening, FRT cells were plated into 384-well black wall, transparent bottom microtiter plates (Costar; Corning Inc.) at a cell density of 20,000-40,000 per well. Test compound was applied to the cells at varying concentrations ranging from 2 nM-[…] in either a 2-fold or 3-fold dilution series. Cells were incubated in a cell culture incubator at 37° C. with 5% CO2 for 24-26 h. Assay plates were washed with DPBS media (Thermo, cat #SH30028.02) to remove unbound cells and compound. Stimulation media (25 μL) containing 20 μM Forskolin & 30 μM P3 [6-(Ethyl-phenyl-sulfonyl)-4-oxo-1,4-dihydro-quinoline-3-carboxylic acid 2-methoxy-benzylamide] in Hams F-12 coon's modified media was added to the plate wells and incubated at room temperature for 60-120 min. 25 μL of HEPES-PBS -I buffer (10 mM HEPES, 1 mM MgCl2, 3 mM KCl, 1 mM CaCl2, 150 mM NaI) was then added and fluorescence quench curves (Excitation 500 nm/Emission 540 nm; exposure 136 ms) were immediately recorded on an FDSS-6000 plate reader (Hamamatsu). Quench rates were derived from least squares fitting of the data as described by Sui et al. (2010).

T1 sequence (P13569 with tags, fused parts or gaps DEL508-508): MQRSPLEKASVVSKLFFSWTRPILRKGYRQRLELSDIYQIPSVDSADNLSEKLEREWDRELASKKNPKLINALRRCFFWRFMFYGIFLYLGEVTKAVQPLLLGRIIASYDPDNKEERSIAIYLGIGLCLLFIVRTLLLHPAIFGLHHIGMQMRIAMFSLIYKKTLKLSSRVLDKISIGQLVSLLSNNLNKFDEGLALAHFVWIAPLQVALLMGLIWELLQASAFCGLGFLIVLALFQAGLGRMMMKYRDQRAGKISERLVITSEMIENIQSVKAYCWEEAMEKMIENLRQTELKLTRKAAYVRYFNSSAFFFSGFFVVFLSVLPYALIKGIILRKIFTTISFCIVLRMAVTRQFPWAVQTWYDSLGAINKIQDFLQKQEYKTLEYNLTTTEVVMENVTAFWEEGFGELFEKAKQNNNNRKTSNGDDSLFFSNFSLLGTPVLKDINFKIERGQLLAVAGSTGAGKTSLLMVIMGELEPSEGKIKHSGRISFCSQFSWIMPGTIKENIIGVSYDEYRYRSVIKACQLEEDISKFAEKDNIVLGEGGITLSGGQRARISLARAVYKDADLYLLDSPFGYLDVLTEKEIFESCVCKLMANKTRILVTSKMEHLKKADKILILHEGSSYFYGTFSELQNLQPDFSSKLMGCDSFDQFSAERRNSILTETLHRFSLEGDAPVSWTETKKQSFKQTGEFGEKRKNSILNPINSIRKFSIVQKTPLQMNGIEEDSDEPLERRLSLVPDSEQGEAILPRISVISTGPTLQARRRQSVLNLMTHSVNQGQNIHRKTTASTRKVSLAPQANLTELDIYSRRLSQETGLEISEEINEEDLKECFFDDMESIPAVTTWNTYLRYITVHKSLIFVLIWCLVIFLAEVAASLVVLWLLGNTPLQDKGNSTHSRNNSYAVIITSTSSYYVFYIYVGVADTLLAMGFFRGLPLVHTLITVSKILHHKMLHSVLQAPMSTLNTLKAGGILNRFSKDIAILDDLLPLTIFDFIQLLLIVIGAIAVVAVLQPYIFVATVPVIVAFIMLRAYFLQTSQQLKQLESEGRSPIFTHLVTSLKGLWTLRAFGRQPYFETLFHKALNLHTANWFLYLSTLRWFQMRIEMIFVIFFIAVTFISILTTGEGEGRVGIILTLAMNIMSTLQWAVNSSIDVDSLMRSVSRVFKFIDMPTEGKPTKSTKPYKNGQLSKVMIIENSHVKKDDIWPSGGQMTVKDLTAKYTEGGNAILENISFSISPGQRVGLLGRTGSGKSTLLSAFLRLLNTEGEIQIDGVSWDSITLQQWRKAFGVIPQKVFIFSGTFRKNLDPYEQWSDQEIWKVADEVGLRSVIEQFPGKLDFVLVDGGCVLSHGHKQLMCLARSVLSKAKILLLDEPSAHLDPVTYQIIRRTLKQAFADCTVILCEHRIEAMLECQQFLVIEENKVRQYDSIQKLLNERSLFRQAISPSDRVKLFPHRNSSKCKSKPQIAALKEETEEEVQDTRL

SMILES | Emax | EC50
COc1ccc(S(=O)(=O)N2CCC(n3c(-c4nc5ccccc5[nH]4)nc4cccnc43)CC2)cc1Cl [Example 33] | 30 to 80% | 10 to 20 µM
COc1ccc(S(=O)(=O)N2CCC(n3c(-c4ccc5[nH]cnc5c4)nc4cccnc43)CC2)cc1Cl [Example 34] | 30 to 80% | < 10 µM
COc1ccc(S(=O)(=O)N2CCC(n3c(-c4ccccc4)nc4cc(Cl)cnc43)CC2)cc1Cl [Example 35] | 30 to 80% | < 10 µM
COc1ccc(S(=O)(=O)N2CCC(n3c(-c4ccccc4)nc4ccc(Cl)nc43)CC2)cc1Cl [Example 36] | 10 to 30% | < 10 µM
COc1cc(S(=O)(=O)N2CCC(n3c(-c4ccccc4)nc4cccnc43)CC2)ccc1Cl [Example 37] | 30 to 80% | < 10 µM
